# Results taken from patent publication US8729013B2 (priority 2004, dated 2014).
# Non-standard residues stand in square brackets, D forms with d. Residues, ends and D or L forms follow the SMILES beside them. Orn(N5-OH,N5-Ac) = CC(=O)N(O)CCC[C@H](N)C(=O)O
# Experiments:
# Assay type in all cases: cell-based, Staphylococcus aureus
# [1] = tested on: H1071 (RN6390 ΔfhuCBG::ermB); assay: Siderophore plate bioassay (iron source utilization); settings: TMS agar, 25 μM EDDHA; compared with wildtype
# Experimental: Siderophore plate bioassays were performed essentially as described (Sebulsky et al. (2000) J. Bacteriol. 182:4394-4400). Briefly, 10^4 cells/mL were added to molten TMS agar containing 25 μM EDDHA as an iron chelating agent. Ten microliters of iron sources to be tested (DESFERAL® (50 μM), ferrichrome (50 μM), enterobactin (500 μM), staphylobactin (50 μM DESFERAL® equivalents), hemin (250 μg/mL), hemoglobin (2 mg/mL), FeCl3 (50 mM), or ferric citrate (5 mM)) were added to sterile 6 mm-diameter paper disks and placed on the surface of the plates. Growth promotion, as measured by the diameter of the growth halo around each disk, was determined after 48 h incubation, except for heme and hemoglobin, which were measured after 72 hours.
# [2] = tested on: S. aureus H804 (Newman sirB::Tet); assay: Minimum inhibitory concentration (MIC) in TMS; settings: H804, bacteria grown in TMS
# Excerpt: (§1) Streptonigrin is toxic to cells in the presence of intracellular iron and, therefore, cells importing iron are generally more sensitive to the toxic affects of this drug versus mutants debilitated in iron import (Yeowell et al. (1982) Antimicrob. Agents Chemother. 22:961-968). The minimum inhibitory concentration (MIC) of streptonigrin was approximately 4-fold lower for S. aureus Newman grown in TMS than for either S. aureus H803 or H804 grown in the same media (see Table 2).
# [3] = tested on: S. aureus Newman; assay: Minimum inhibitory concentration (MIC) in TMS
# Excerpt: as §1
# [4] = tested on: S. aureus H803 (Newman sirA::Km); assay: Minimum inhibitory concentration (MIC) in TMS; settings: H803, bacteria grown in TMS
# Excerpt: as §1
# [5] = tested on: sirA and sirB mutants; assay: Siderophore plate bioassay (growth promotion); settings: data not shown
# Experimental: Siderophore plate bioassays were performed essentially as previously described (Sebulsky et al. (2000) J. Bacteriol. 182:4394-4400) with the following modifications: TMS-agar was cooled to 45° C. before the addition of 10^5 cfu/ml of each strain to be tested. 2,2′-dipyridyl was added at a concentration of 550 μM for plates containing S. aureus Newman and Newman containing vehicle controls (e.g. pAW8 and pALC2073) or 400 μM 2,2′-dipyridyl for strains H803 (Newman sirA::Km) and H804 (Newman sirB::Tet) (see FIG. 1) with or without plasmids. Staphylobactin siderophore was isolated from RN6390 as previously described (Dale et al. (2004) Infect. Immun. 72:29-37). Briefly, S. aureus strains were vigorously shaken in TMS for 48 hours at 37° C. Culture supernatants were recovered by centrifugation in 100% methanol to 1/10 of the volume of the original culture supernatant and passed through Whatman No. 1 filter paper to remove particulate material. Rotary evaporation was used to reduce the volume before application to an LH-20 column (Amersham Biosciences). Fractions were collected, and those testing positive with chrome azurol S (CAS) shuttle solution and for biological activity in siderophore plate bioassays were dried, resuspended in water, and examined by high-performance liquid chromatography (HPLC). Analytical reversed-phase HPLC was used for final purification of siderophore. The column utilized was a Waters ODS2 SPherisorb column (4.6 by 150 mm). Trifluoroacetic acid (0.1%) in water represented solvent A whereas 0.1% trifluoroacetic acid in acetonitrile was used as solvent B. The chromatographic method used was as follows: at a flow rate of 0.75 ml/min, 6% B for 3.5 min., followed by a gradient of 6 to 60% B over 20 min. […] Staphylobactin was collected, dried, and rechromatographed to check for purity. The purity of Staphylobactin siderophore was confirmed by HPLC analysis. Aerobactin was purchased from EMC microcollections and used at a concentration of 1 μg/ml as a control in all bioassays.
# [6] = Staphylococcus aureus, NEWMAN, read-out: MIC Streptonigrin
Compound,utilization as iron source by H1071 [1],growth promotion in mutants [5],also measured
O=C(N[C@H]1COC(=O)[C@@H](NC(=O)c2cccc(O)c2O)COC(=O)[C@@H](NC(=O)c2cccc(O)c2O)COC1=O)c1cccc(O)c1O [enterobactin],not significantly impaired,,
"c1ccc(-c2ccccn2)nc1 [2,2′-dipyridyl]",,,"MIC 2,2′-dipyridyl [2]: 125 µM; MIC higher for Newman than for H803 or H804 [3]: 4 fold; MIC 2,2′-dipyridyl ([3]; Newman, bacteria grown in TMS): 500 µM; MIC 2,2′-dipyridyl [4]: 125 µM"
ferric citrate,not significantly impaired,unaffected,
"CC(=O)N([O-])CCC[C@@H]1NC(=O)CNC(=O)CNC(=O)CNC(=O)[C@H](CCCN([O-])C(C)=O)NC(=O)[C@H](CCCN([O-])C(C)=O)NC1=O.[Fe+3] [ferrichrome] (cyclo(GGG[Orn(N5-OH,N5-Ac)][Orn(N5-OH,N5-Ac)][Orn(N5-OH,N5-Ac)]))",unable to utilize,,
hemin,not significantly impaired,,
"COC1=C(N)C(=O)c2nc(-c3nc(C(=O)O)c(C)c(-c4ccc(OC)c(OC)c4O)c3N)ccc2C1=O [Streptonigrin, streptonigrin]",,,"MIC [2, 6]: 8 ng/mL; MIC Streptonigrin ([3]; Newman, bacteria grown in TMS): 2 ng/mL; MIC ([3]; Staphylococcus aureus, Newman + 50 μM DESFERAL, TMS, read-out: MIC Streptonigrin): 2 ng/mL; MIC lower for Newman than for H803 or H804 ([3]; grown in TMS): approximately 4 fold; MIC [4, 6]: 8 ng/mL"
CC(=O)N[C@@H](CCCN([O-])C(=O)/C=C(\C)CCO)C(=O)OCC/C(C)=C/C(=O)N([O-])CCC[C@@H]1NC(=O)[C@H](CCCN([O-])C(=O)/C=C(\C)CCO)NC1=O.[Fe+3] [coprogen],unable to utilize,,
hemoglobin,not significantly impaired,,
CC(=O)N(O)CCCC[C@H](NC(=O)CC(O)(CC(=O)N[C@@H](CCCCN(O)C(C)=O)C(=O)O)C(=O)O)C(=O)O [aerobactin],unable to utilize,unaffected,
"CC(=O)N(O)CCCCCNC(=O)CCC(=O)N(O)CCCCCNC(=O)CCC(=O)N(O)CCCCCN [DESFERAL®, desferrioxamine B]",unable to utilize,unaffected,
